Assay results: US20140024527A1, “HERBICIDAL PYRAZINONES” (E I DU DE NEMOURS AND COMPANY, priority 2011, published 2014)

Experiments:
Type in all cases: in vivo
[1] = tested on: barnyardgrass (Echinochloa crus-galli); assay: Test A preemergence; settings: 0 to 100 scale, 0 no effect, 100 complete control, approx. 10 days
Excerpt: (§1) Seeds of barnyardgrass (Echinochloa crus-galli), large crabgrass (Digitaria sanguinalis), giant foxtail (Setaria faberii), morningglory (Ipomoea spp.), pigweed (Amaranthus retroflexus), velvetleaf (Abutilon theophrasti), wheat (Triticum aestivum) and corn (Zea mays) were planted into a blend of loam soil and sand and treated preemergence with a directed soil spray using test chemicals formulated in a non-phytotoxic solvent mixture which included a surfactant. At the same time these species were also treated with postemergence applications of test compounds formulated in the same manner. Plants ranged in height from 2 to 10 cm and were in the one- to two-leaf stage for the postemergence treatments. Treated plants and untreated controls were maintained in a greenhouse for approximately 10 days, after which time all treated plants were compared to untreated controls and visually evaluated for injury. Plant response ratings, summarized in Table A, are based on a 0 to 100 scale where 0 is no effect and 100 is complete control.

[2] = tested on: morningglory (Ipomoea spp.); assay: Test A preemergence; settings: 0 to 100 scale, 0 no effect, 100 complete control, approx. 10 days
Excerpt: as §1

[3] = tested on: large crabgrass (Digitaria sanguinalis); assay: Test A preemergence; settings: 0 to 100 scale, 0 no effect, 100 complete control, approx. 10 days
Excerpt: as §1

[4] = tested on: wheat (Triticum aestivum); assay: Test A preemergence; settings: 0 to 100 scale, 0 no effect, 100 complete control, approx. 10 days
Excerpt: as §1

[5] = tested on: pigweed (Amaranthus retroflexus); assay: Test A preemergence; settings: 0 to 100 scale, 0 no effect, 100 complete control, approx. 10 days
Excerpt: as §1

[6] = tested on: giant foxtail (Setaria faberii); assay: Test A preemergence; settings: 0 to 100 scale, 0 no effect, 100 complete control, approx. 10 days
Excerpt: as §1

corn (Zea mays) [7] = assay: Test A preemergence; settings: 0 to 100 scale, 0 no effect, 100 complete control, approx. 10 days
Excerpt: as §1

[8] = tested on: velvetleaf (Abutilon theophrasti); assay: Test A preemergence; settings: 0 to 100 scale, 0 no effect, 100 complete control, approx. 10 days
Excerpt: as §1

[9] = tested on: barnyardgrass (Echinochloa crus-galli); assay: Test B flooded paddy test; settings: Flood
Excerpt: (§2) Plant species in the flooded paddy test consisted of rice (Oryza sativa), umbrella sedge (Cyperus difformis), ducksalad (Heteranthera limosa) and barnyardgrass (Echinochloa crus-galli) grown to the 2-leaf stage for testing. At time of treatment, test pots were flooded to 3 cm above the soil surface, treated by application of test compounds directly to the paddy water, and then maintained at that water depth for the duration of the test. Treated plants and controls were maintained in a greenhouse for 13 to 15 days, after which time all species were compared to controls and visually evaluated. Plant response ratings, summarized in Table B, are based on a scale of 0 to 100 where 0 is no effect and 100 is complete control. A dash (-) response means no test result.

rice (Oryza sativa) = assay: Test B flooded paddy test; settings: Flood, scale 0 to 100
Excerpt: as §2

[10] = tested on: ducksalad (Heteranthera limosa); assay: Test B flooded paddy test; settings: Flood, scale 0 to 100
Excerpt: as §2

[11] = tested on: umbrella sedge (Cyperus difformis); assay: Test B flooded paddy test; settings: Flood, scale 0 to 100
Excerpt: as §2

[12] = tested on: barnyardgrass (Echinochloa crus-galli); assay: Test A postemergence; settings: 0 to 100 scale, 0 no effect, 100 complete control, approx. 10 days
Excerpt: as §1

[13] = tested on: morningglory (Ipomoea spp.); assay: Test A postemergence; settings: 0 to 100 scale, 0 no effect, 100 complete control, approx. 10 days
Excerpt: as §1

[14] = tested on: large crabgrass (Digitaria sanguinalis); assay: Test A postemergence; settings: 0 to 100 scale, 0 no effect, 100 complete control, approx. 10 days
Excerpt: as §1

[15] = tested on: wheat (Triticum aestivum); assay: Test A postemergence; settings: 0 to 100 scale, 0 no effect, 100 complete control, approx. 10 days
Excerpt: as §1

[16] = tested on: pigweed (Amaranthus retroflexus); assay: Test A postemergence; settings: 0 to 100 scale, 0 no effect, 100 complete control, approx. 10 days
Excerpt: as §1

[17] = tested on: giant foxtail (Setaria faberii); assay: Test A postemergence; settings: 0 to 100 scale, 0 no effect, 100 complete control, approx. 10 days
Excerpt: as §1

corn (Zea mays) [18] = assay: Test A postemergence; settings: 0 to 100 scale, 0 no effect, 100 complete control, approx. 10 days
Excerpt: as §1

[19] = tested on: velvetleaf (Abutilon theophrasti); assay: Test A postemergence; settings: 0 to 100 scale, 0 no effect, 100 complete control, approx. 10 days
Excerpt: as §1

[20] = 250 g ai/ha, scale 0 to 100 (0 no effect, 100 complete control)

O=C1CCCC(O)=C1C(=O)c1nc(Cl)c(-c2cccc(F)c2)n(C2CCCCC2)c1=O [Compound 2, 5-chloro-1-cyclohexyl-6-(3-fluorophenyl)-3-[(2-hydroxy-6-oxo-1-cyclohexen-1-yl)carbonyl]-2(1H)pyrazinone]
50: Plant response rating, Crabgrass, Large ([3]; 500 g ai/ha)
0: Plant response rating, Barnyardgrass ([1]; 125 g ai/ha) | Plant response rating, Morningglory ([2]; 125 g ai/ha) | Plant response rating, Crabgrass, Large ([3]; 125 g ai/ha) | Plant response rating, Wheat ([4]; 125 g ai/ha) | Plant response rating, Wheat ([4]; 500 g ai/ha) | Plant response rating, Pigweed ([5]; 125 g ai/ha) | Plant response rating, Foxtail, Giant ([6]; 125 g ai/ha) | Plant response rating, Corn (corn (Zea mays) [7]; 125 g ai/ha) | Plant response rating, Corn (corn (Zea mays) [7]; 500 g ai/ha) | Plant response rating, Velvetleaf ([8]; 125 g ai/ha) | Plant response rating, Barnyardgrass ([9]; 31 g ai/ha, scale 0 to 100) | Plant response rating, Barnyardgrass ([9]; 62 g ai/ha, scale 0 to 100) | Plant response rating, Barnyardgrass ([9]; 125 g ai/ha, scale 0 to 100) | Plant response rating, Barnyardgrass [9, 20] | Plant response rating, Rice (rice (Oryza sativa); 31 g ai/ha) | Plant response rating, Rice (rice (Oryza sativa); 62 g ai/ha) | Plant response rating, Rice (rice (Oryza sativa); 125 g ai/ha) | Plant response rating, Rice (rice (Oryza sativa); 250 g ai/ha) | Plant response rating, Ducksalad ([10]; 31 g ai/ha) | Plant response rating, Ducksalad ([10]; 62 g ai/ha) | Plant response rating, Sedge, Umbrella ([11]; 31 g ai/ha) | Plant response rating, Sedge, Umbrella ([11]; 62 g ai/ha) | Plant response rating, Barnyardgrass ([12]; 125 g ai/ha) | Plant response rating, Crabgrass, Large ([14]; 125 g ai/ha) | Plant response rating, Wheat ([15]; 125 g ai/ha) | Plant response rating, Wheat ([15]; 500 g ai/ha) | Plant response rating, Foxtail, Giant ([17]; 125 g ai/ha) | Plant response rating, Corn (corn (Zea mays) [18]; 125 g ai/ha) | Plant response rating, Corn (corn (Zea mays) [18]; 500 g ai/ha)
30: Plant response rating, Foxtail, Giant ([6]; 500 g ai/ha) | Plant response rating, Barnyardgrass ([12]; 500 g ai/ha) | Plant response rating, Crabgrass, Large ([14]; 500 g ai/ha) | Plant response rating, Pigweed ([16]; 125 g ai/ha)
40: Plant response rating, Barnyardgrass ([1]; 500 g ai/ha)
20: Plant response rating, Sedge, Umbrella ([11]; 125 g ai/ha) | Plant response rating, Foxtail, Giant ([17]; 500 g ai/ha)
100: Plant response rating, Velvetleaf ([19]; 500 g ai/ha)
70: Plant response rating, Pigweed ([16]; 500 g ai/ha) | Plant response rating, Velvetleaf ([19]; 125 g ai/ha)
60: Plant response rating, Ducksalad ([10]; 125 g ai/ha) | Plant response rating, Sedge, Umbrella ([11]; 250 g ai/ha) | Plant response rating, Morningglory ([13]; 125 g ai/ha)
90: Plant response rating, Velvetleaf ([8]; 500 g ai/ha) | Plant response rating, Morningglory ([13]; 500 g ai/ha)
80: Plant response rating, Morningglory ([2]; 500 g ai/ha) | Plant response rating, Pigweed ([5]; 500 g ai/ha) | Plant response rating, Ducksalad ([10]; 250 g ai/ha)

O=C1CCCC(O)=C1C(=O)c1nc(Cl)c(-c2cccc(Cl)c2)n(C2CCCCC2)c1=O [Compound 3, 5-chloro-6-(3-chlorophenyl)-1-cyclohexyl-3-[(2-hydroxy-6-oxo-1-cyclohexen-1-yl)carbonyl]-2(1H)-pyrazinone]
30: Plant response rating, Crabgrass, Large ([3]; 250 g ai/ha) | Plant response rating, Sedge, Umbrella ([11]; 125 g ai/ha) | Plant response rating, Morningglory ([13]; 250 g ai/ha) | Plant response rating, Pigweed ([16]; 250 g ai/ha)
80: Plant response rating, Velvetleaf ([8]; 250 g ai/ha) | Plant response rating, Ducksalad ([10]; 125 g ai/ha) | Plant response rating, Ducksalad ([10]; 250 g ai/ha)
60: Plant response rating, Pigweed ([5]; 250 g ai/ha) | Plant response rating, Sedge, Umbrella ([11]; 250 g ai/ha) | Plant response rating, Velvetleaf ([19]; 62 g ai/ha)
40: Plant response rating, Velvetleaf ([8]; 62 g ai/ha)
20: Plant response rating, Barnyardgrass ([1]; 250 g ai/ha) | Plant response rating, Ducksalad ([10]; 62 g ai/ha)
100: Plant response rating, Velvetleaf ([19]; 250 g ai/ha)
0: Plant response rating, Barnyardgrass ([1]; 62 g ai/ha) | Plant response rating, Morningglory ([2]; 62 g ai/ha) | Plant response rating, Crabgrass, Large ([3]; 62 g ai/ha) | Plant response rating, Wheat ([4]; 62 g ai/ha) | Plant response rating, Wheat ([4]; 250 g ai/ha) | Plant response rating, Pigweed ([5]; 62 g ai/ha) | Plant response rating, Foxtail, Giant ([6]; 62 g ai/ha) | Plant response rating, Foxtail, Giant ([6]; 250 g ai/ha) | Plant response rating, Corn (corn (Zea mays) [7]; 62 g ai/ha) | Plant response rating, Corn (corn (Zea mays) [7]; 250 g ai/ha) | Plant response rating, Barnyardgrass ([9]; 31 g ai/ha, scale 0 to 100) | Plant response rating, Barnyardgrass ([9]; 62 g ai/ha, scale 0 to 100) | Plant response rating, Barnyardgrass ([9]; 125 g ai/ha, scale 0 to 100) | Plant response rating, Barnyardgrass [9, 20] | Plant response rating, Rice (rice (Oryza sativa); 31 g ai/ha) | Plant response rating, Rice (rice (Oryza sativa); 62 g ai/ha) | Plant response rating, Rice (rice (Oryza sativa); 125 g ai/ha) | Plant response rating, Rice (rice (Oryza sativa); 250 g ai/ha) | Plant response rating, Ducksalad ([10]; 31 g ai/ha) | Plant response rating, Sedge, Umbrella ([11]; 31 g ai/ha) | Plant response rating, Sedge, Umbrella ([11]; 62 g ai/ha) | Plant response rating, Barnyardgrass ([12]; 62 g ai/ha) | Plant response rating, Barnyardgrass ([12]; 250 g ai/ha) | Plant response rating, Morningglory ([13]; 62 g ai/ha) | Plant response rating, Crabgrass, Large ([14]; 62 g ai/ha) | Plant response rating, Wheat ([15]; 62 g ai/ha) | Plant response rating, Wheat ([15]; 250 g ai/ha) | Plant response rating, Pigweed ([16]; 62 g ai/ha) | Plant response rating, Foxtail, Giant ([17]; 62 g ai/ha) | Plant response rating, Foxtail, Giant ([17]; 250 g ai/ha) | Plant response rating, Corn (corn (Zea mays) [18]; 62 g ai/ha) | Plant response rating, Corn (corn (Zea mays) [18]; 250 g ai/ha)
10: Plant response rating, Morningglory ([2]; 250 g ai/ha) | Plant response rating, Crabgrass, Large ([14]; 250 g ai/ha)
